Measurements reported in US7595401B2, “Therapeutic compounds and their use in cancer” (Myriad Pharmaceuticals, Inc., priority 2006, dated 2009).

What follows are compounds tested on purified human Hsp90 (assay: Binding Assay: fluorescence polarization with BODIPY-labeled geldanamycin). Details: 5 μM compound, BODIPY-GM 10 nM, Hsp90 30 nM.
Outline: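 Fluorescence polarization competition with BODIPY-geldanamycin (10 nM final) and human Hsp90 (30 nM final) in HEPES-KOH pH 7.3 buffer with molybdate, NP-40, DTT; 2% DMSO, overnight at room temperature. Read 485/530 nm; percent inhibition from mP normalized to DMSO controls, fluorescent-compound points excluded.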

% Inhibition at 5 μM Compound Concentration | Structure (SMILES)
31% | CC(=O)N1CCC(CCn2cnc(N)c3nc(Sc4cc5c(cc4Br)OCO5)nc2-3)CC1 [Example 365, 3-[2-(1-Acetylpiperidin-4-yl)ethyl]-8-[(6-bromo-1,3-benzodioxol-5-yl)thio]-3H-purin-6-amine]
20% | CS(=O)(=O)N1CCC(CCn2cnc(N)c3nc(Sc4cc5c(cc4Br)OCO5)nc2-3)CC1 [Example 366, 8-[(6-Bromo-1,3-benzodioxol-5-yl)thio]-3-{2-[1-(methylsulfonyl)piperidin-4-yl]ethyl}-3H-purin-6-amine]
15% | CS(=O)(=O)N1CCCCC1CCn1cnc(N)c2nc(Sc3cc4c(cc3Br)OCO4)nc1-2 (stereo not drawn) [Example 373, 8-[(6-Bromo-1,3-benzodioxol-5-yl)thio]-3-{2-[1-(methylsulfonyl)piperidin-2-yl]ethyl}-3H-purin-6-amine]
4% | Nc1ncn(CCn2ccnc2)c2nc(Sc3cc4c(cc3Br)OCO4)nc1-2 [Example 380, 8-[(6-Bromo-1,3-benzodioxol-5-yl)thio]-3-[2-(1H-imidazol-1-yl)ethyl]-3H-purin-6-amine]
13% | Nc1ncn(CCC2CCN(S(=O)(=O)C(F)(F)F)CC2)c2nc(Sc3cc4c(cc3Br)OCO4)nc1-2 [Example 388, 8-[(6-Bromo-1,3-benzodioxol-5-yl)thio]-3-(2-{1-[(trifluoromethyl)sulfonyl]piperidin 4-yl}ethyl)-3H-purin-6-amine]
38% | CC(C)(C)OC(=O)N1CCC(=CCn2cnc(N)c3nc(Sc4cc5c(cc4Br)OCO5)nc2-3)CC1 [Example 389, tert-Butyl 4-(2-{6-amino-8-[(6-bromo-1,3-benzodioxol-5-yl)thio]-3H-purin-3-yl}ethylidene)piperidine-1-carboxylate]
0% | CC(C)(C)OC(=O)N1CCC[C@H](CCn2cnc(N)c3nc(Sc4cc5c(cc4Br)OCO5)nc2-3)C1 [Example 393, tert-Butyl (3R)-3-(2-{6-amino-8-[(6-bromo-1,3-benzodioxol-5-yl)thio]-3H-purin-3-yl}ethyl)piperidine-1-carboxylate]
0% | CC(C)(C)OC(=O)N1CCCC[C@@H]1CCn1cnc(N)c2nc(Sc3cc4c(cc3Br)OCO4)nc1-2 [Example 395, tert-Butyl (2R)-2-(2-{6-amino-8-[(6-bromo-1,3-benzodioxol-5-yl)thio]-3H-purin-3-yl}ethyl)piperidine-1-carboxylate]
1% | Nc1ncn(CCC2CCCCN2S(=O)(=O)C(F)(F)F)c2nc(Sc3cc4c(cc3Br)OCO4)nc1-2 (stereo not drawn) [Example 397, 8-[(6-Bromo-1,3-benzodioxol-5-yl)thio]-3-(2-{1-[(trifluoromethyl)sulfonyl]piperidin 2-yl}ethyl)-3H-purin-6-amine]
2% | CC(=O)N1CCCC(CCn2cnc(N)c3nc(Sc4cc5c(cc4Br)OCO5)nc2-3)C1 (stereo not drawn) [Example 401, 3-[2-(1-Acetylpiperidin-3-yl)ethyl]-8-[(6-bromo-1,3-benzodioxol-5-yl)thio]-3H-purin-6-amine]
14% | Nc1ncn(CCC2CCCN(S(=O)(=O)C(F)(F)F)C2)c2nc(Sc3cc4c(cc3Br)OCO4)nc1-2 (stereo not drawn) [Example 403, 8-[(6-Bromo-1,3-benzodioxol-5-yl)thio]-3-(2-{1-[(trifluoromethyl)sulfonyl]piperidin-3-yl}ethyl)-3H-purin-6-amine]

Same assay, conditions: BODIPY-GM 10 nM, Hsp90 30 nM

IC50 | Structure (SMILES)
102 nM | CC(=O)N1CCC(CCn2c(Sc3cc4c(cc3Br)OCO4)nc3c(N)ncnc32)CC1 [Example 364, 9-[2-(1-Acetylpiperidin-4-yl)ethyl]-8-[(6-bromo-1,3-benzodioxol-5-yl)thio]-9H-purin-6-amine]
> 25000 nM | CC(C)(C)OC(=O)N1CCOC(CCn2c(Sc3cc4c(cc3Br)OCO4)nc3c(N)ncnc32)C1 (stereo not drawn) [Example 367, tert-Butyl 2-(2-{6-amino-8-[(6-bromo-1,3-benzodioxol-5-yl)thio]-9H-purin-9-yl}ethyl)morpholine-4-carboxylate]
35 nM | CS(=O)(=O)N1CCCC(CCn2c(Sc3cc4c(cc3Br)OCO4)nc3c(N)ncnc32)C1 (stereo not drawn) [Example 369, 8-[(6-Bromo-1,3-benzodioxol-5-yl)thio]-9-{2-[1-(methylsulfonyl)piperidin-3-yl]ethyl}-9H-purin-6-amine]
600 nM | CS(=O)(=O)N1CCCC(CCn2cnc(N)c3nc(Sc4cc5c(cc4Br)OCO5)nc2-3)C1 (stereo not drawn) [Example 370, 8-[(6-Bromo-1,3-benzodioxol-5-yl)thio]-3-{2-[1-(methylsulfonyl)piperidin-3-yl]ethyl}-3H-purin-6-amine]
700 nM | COc1ccc(OC)c(Sc2nc3c(N)ncnc3n2CCC2CCCCN2S(C)(=O)=O)c1 (stereo not drawn) [Example 371, 8-[(2,5-Dimethoxyphenyl)thio]-9-{2-[1-(methylsulfonyl)piperidin-2-yl]ethyl}-9H-purin-6-amine]
100 nM | CS(=O)(=O)N1CCCCC1CCn1c(Sc2cc3c(cc2Br)OCO3)nc2c(N)ncnc21 (stereo not drawn) [Example 372, 8-[(6-Bromo-1,3-benzodioxol-5-yl)thio]-9-{2-[1-(methylsulfonyl)piperidin-2-yl]ethyl}-9H-purin-6-amine]
240 nM | CS(=O)(=O)N1CCC(CCn2c(Sc3cc4c(cc3Br)OCO4)nc3c(N)ncnc32)CC1 [Example 378, 8-[(6-Bromo-1,3-benzodioxol-5-yl)thio]-9-{2-[1-(methylsulfonyl)piperidin-4-yl]ethyl}-9H-purin-6-amine]
390 nM | Nc1ncnc2c1nc(Sc1cc3c(cc1Br)OCO3)n2CCn1ccnc1 [Example 381, 8-[(6-Bromo-1,3-benzodioxol-5-yl)thio]-9-[2-(1H-imidazol-1-yl)ethyl]-9H-purin-6-amine]
140 nM | CC(=O)N1CCN(CCn2c(Sc3cc4c(cc3Br)OCO4)nc3c(N)ncnc32)CC1 [Example 382, 9-[2-(4-Acetylpiperazin-1-yl)ethyl]-8-[(6-bromo-1,3-benzodioxol-5-yl)thio]-9H-purin-6-amine]
21000 nM | CC(=O)N1CCN(CCn2cnc(N)c3nc(Sc4cc5c(cc4Br)OCO5)nc2-3)CC1 [Example 383, 3-[2-(4-Acetylpiperazin-1-yl)ethyl]-8-[(6-bromo-1,3-benzodioxol-5-yl)thio]-3H-purin-6-amine]
110 nM | CCCN1CCCCC1CCn1c(Sc2cc3c(cc2Br)OCO3)nc2c(N)ncnc21 (stereo not drawn) [Example 386, 8-[(6-Bromo-1,3-benzodioxol-5-yl)thio]-9-[2-(1-propylpiperidin-2-yl)ethyl]-9H-purin-6-amine]
> 8000 nM | Nc1ncnc2c1nc(Sc1cc3c(cc1Br)OCO3)n2CCC1CCN(S(=O)(=O)C(F)(F)F)CC1 [Example 387, 8-[(6-Bromo-1,3-benzodioxol-5-yl)thio]-9-(2-{1-[(trifluoromethyl)sulfonyl]piperidin 4-yl}ethyl)-9H-purin-6-amine]
310 nM | CC(C)(C)OC(=O)N1CCC(=CCn2c(Sc3cc4c(cc3Br)OCO4)nc3c(N)ncnc32)CC1 [Example 390, tert-Butyl 4-(2-{6-amino-8-[(6-bromo-1,3-benzodioxol-5-yl)thio]-9H-purin-9-yl}ethylidene)piperidine-1-carboxylate]
1200 nM | CC(C)(C)OC(=O)N1CCC[C@@H](CCn2c(Sc3cc4c(cc3Br)OCO4)nc3c(N)ncnc32)C1 [Example 391, tert-Butyl (3S)-3-(2-{6-amino-8-[(6-bromo-1,3-benzodioxol-5-yl)thio]-9H-purin-9-yl}ethyl)piperidine-1-carboxylate]
2900 nM | CC(C)(C)OC(=O)N1CCC[C@H](CCn2c(Sc3cc4c(cc3Br)OCO4)nc3c(N)ncnc32)C1 [Example 392, tert-Butyl (3R)-3-(2-{6-amino-8-[(6-bromo-1,3-benzodioxol-5-yl)thio]-9H-purin-9-yl}ethyl)piperidine-1-carboxylate]
700 nM | CC(C)(C)OC(=O)N1CCCC[C@@H]1CCn1c(Sc2cc3c(cc2Br)OCO3)nc2c(N)ncnc21 [Example 394, tert-Butyl (2R)-2-(2-{6-amino-8-[(6-bromo-1,3-benzodioxol-5-yl)thio]-9H-purin-9-yl}ethyl)piperidine-1-carboxylate]
810 nM | Nc1ncnc2c1nc(Sc1cc3c(cc1Br)OCO3)n2CCC1CCCCN1S(=O)(=O)C(F)(F)F (stereo not drawn) [Example 396, 8-[(6-Bromo-1,3-benzodioxol-5-yl)thio]-9-(2-{1-[(trifluoromethyl)sulfonyl]piperidin 2-yl}ethyl)-9H-purin-6-amine]
140 nM | CC(C)(C)OC(=O)N[C@H]1CC[C@@H](CCn2c(Sc3cc4c(cc3Br)OCO4)nc3c(N)ncnc32)CC1 [Example 398, tert-Butyl [cis-4-(2-{6-amino-8-[(6-bromo-1,3-benzodioxol-5-yl)thio]-9H-purin-9-yl}ethyl)cyclohexyl]carbamate]
950 nM | CC(C)(C)OC(=O)N[C@H]1CC[C@@H](CCn2cnc(N)c3nc(Sc4cc5c(cc4Br)OCO5)nc2-3)CC1 [Example 399, tert-Butyl [cis-4-(2-{6-amino-8-[(6-bromo-1,3-benzodioxol-5-yl)thio]-3H-purin-3-yl}ethyl)cyclohexyl]carbamate]
6000 nM | CC(=O)N1CCCC(CCn2c(Sc3cc4c(cc3Br)OCO4)nc3c(N)ncnc32)C1 (stereo not drawn) [Example 400, 9-[2-(1-Acetylpiperidin-3-yl)ethyl]-8-[(6-bromo-1,3-benzodioxol-5-yl)thio]-9H-purin-6-amine]
590 nM | Nc1ncnc2c1nc(Sc1cc3c(cc1Br)OCO3)n2CCC1CCCN(S(=O)(=O)C(F)(F)F)C1 (stereo not drawn) [Example 402, 8-[(6-Bromo-1,3-benzodioxol-5-yl)thio]-9-(2-{1-[(trifluoromethyl)sulfonyl]piperidin 3-yl}ethyl)-9H-purin-6-amine]

Structure (SMILES) | IC50
COc1ccc(OC)c(Sc2nc3c(N)ncnc3n2CCC2(F)C(F)(F)C(F)(F)C(F)(F)C(F)(F)C2(F)F)c1 [Example 384, 8-[(2,5-Dimethoxyphenyl)thio]-9-[2-(undecafluorocyclohexyl)ethyl]-9H-purin-6-amine] | > 1000 nM
